According to patent US11311524B2, “Pharmaceutical composition used for treatment of HTLV-1-associated myelopathy” (DAIICHI SANKYO COMPANY, LIMITED, priority 2017, dated 2022):
Where two headings read alike, the source gives them in different places.

Experiments:
Format in all cases: cell-based, human
HCT-4 cells = assay: Apoptosis of HCT-4 cells (Annexin V-PE / 7-AAD, FACS); settings: HCT-4, 1 μM, 21 days
Protocol: (§1) In this Example, experiments were carried out using the cells cultured for 21 days in Example 5. To detect apoptotic cells in the cells cultured for 21 days by adding 1 μM of compound A or compound B, the cells were stained by use of PE Annexin V apoptosis Detection Kit I (BD) and analyzed by FACS. In this analysis, the viable cells were detected based on FSC (forward scatter)-SSC (side scatter) plots. The viable cells were analyzed by Annexin V-PE (annexin V) and 7-AAD (7-amino actinomycin D). Early apoptotic cells were detected as Annexin V (+) 7-AAD (−) cells. The results were as shown in FIG. 8 (HCT-4 cells) and FIG. 9 (HCT-5 cells).

HCT-5 cells = assay: Apoptosis of HCT-5 cells (Annexin V-PE / 7-AAD, FACS); settings: HCT-5, 1 μM, 21 days
Protocol: as §1

HAM patient-derived PBMC = assay: Autoproliferation (3H-thymidine incorporation) of HAM patient-derived PBMC without stimulation; settings: for GI50: Homo sapiens, 6 days culture, 3H-thymidine; for Suppression of autoproliferation activity of HAM patient-derived PBMC: no stimulation, relative to DMSO group
Protocol: PBMC taken from 8 HAM patients were suspended in culture mediums (RPMI1640 culture medium (wako) containing 10% FBS (GIBCO)), seeded in a 96-well round-bottom plate in a ratio of 1×10^5 cells per well (3 wells were used for each concentration), and compound A or compound B was added so as to provide a final concentration of 1, 10, 100 or 1000 nM. Culture was carried out at 37° C. in 5% CO2 conditions for 6 days. The DMSO treatment group and the PSL (1 μg/mL) treatment group were used as controls. Day 6 after initiation of culture, 1 μCi ^3H-thymidine was added to each well and culture was carried out at 37° C., in 5% CO2 conditions for 16 hours. Thereafter, the cultured cells were allowed to adsorb to a glass filter (Printed Filtermat A, PerkinElmer) by a cell harvester (Tomtec MH3, PerkinElmer), dried and impregnated with solid scintillator Meltilex-A (PerkinElmer). The amount of the ^3H-thymidine incorporated in the cells was measured by use of MicroBeta (WALLAC MicroBeta TriLux 1450-021) (Yamano et al., PLoS One. 2009, 4(8): e6517). Based on the average count of ^3H-thymidine in the DMSO treatment group of HAM patients' PBMC as 100%, the relative values of the groups treated with compound A, compound B and PSL (1 μg/mL) were obtained by calculation, and then, an average value of 8 HAM patient cases was obtained. A significance test was carried out in accordance with the Friedman test of GraphPad Prism6 (MDF).
The number of patients was increased to 16 and the same experiment as above was carried out.
Effect on HAM patient-derived PBMC was checked in the same manner as in the above Example except that an EZH2 inhibitor was used in place of compounds A and B.
As the EZH2 inhibitor, GSK126 (CAS No.: 1346574-57-9) and E7438 (CAS No.: 1403254-99-8) were used. The concentration for treatment was 1, 10, 100, 1000 or 10000 nM in terms of final concentration. In the experiment, PBMC samples taken from the 8 persons before the number of cases increased in the above were used.

[1] = PBMC of 8 HAM patients, read-out: GI50, autoproliferation activity of HAM patient-derived PBMC
[2] = PBMC of 16 HAM patients, read-out: GI50, spontaneous proliferation activity of HAM patient-derived PBMC

Row | SMILES | Number of early apoptotic cells (Annexin V (+) 7-AAD (−)) (HCT-4 cells) | Number of viable cells (FSC-SSC) (HCT-4 cells) | Number of early apoptotic cells (Annexin V (+) 7-AAD (−)) (HCT-5 cells) | Number of viable cells (FSC-SSC) (HCT-5 cells) | GI50 (HAM patient-derived PBMC; [1]) [nM] | GI50 (HAM patient-derived PBMC; [2]) [nM] | Suppression of autoproliferation activity of HAM patient-derived PBMC (HAM patient-derived PBMC)
1 | Cc1cc(C)c(CNC(=O)c2cc(Br)c3c(c2C)O[C@@](C)([C@H]2CC[C@H](N(C)C)CC2)O3)c(=O)[nH]1 [compound A, (2R)-7-bromo-2-[trans-4-(dimethylamino)cyclohexyl]-N-[(4,6-dimethyl-2-oxo-1,2-dihydropyridin-3-yl)methyl]-2,4-dimethyl-1,3-benzodioxole-5-carboxamide] | the number of early apoptotic cells increased | the number of viable cells decreases | the number of early apoptotic cells increased | the number of viable cells decreases | 73 | 45.6 | suppressed autoproliferation activity of PBMC in all the eight HAM patient cases, in a concentration-dependent manner
2 | Cc1cc(C)c(CNC(=O)c2cc(Cl)c3c(c2C)O[C@@](C)([C@H]2CC[C@H](N(C)C)CC2)O3)c(=O)[nH]1 [compound B, (2R)-7-chloro-2-[trans-4-(dimethylamino)cyclohexyl]-N-[(4,6-dimethyl-2-oxo-1,2-dihydropyridin-3-yl)methyl]-2,4-dimethyl-1,3-benzodioxole-5-carboxamide] | the number of early apoptotic cells increased | the number of viable cells decreases | the number of early apoptotic cells increased | the number of viable cells decreases | 33.9 | 25.9 | suppressed autoproliferation activity of PBMC in all the eight HAM patient cases, in a concentration-dependent manner
